Consider one compound from patent publication US9012604B2, “Triazanonane derivatives or pharmaceutically acceptable salt thereof for enhanced fluorine-18 labeling” (Snur & DB Foundation, priority 2011, dated 2015).

In the data set the test system is human serum protein. The data set can be described thus: Human serum protein binding measurement. Type of data set: in vitro ADME. Particulars: compared with NO2A compound. Here is the method: The labeling compounds were cultured in human serum (1 mL) at 37° C. for 10 min and 60 min, and loaded to PD-10 column (pre-conditioned with 1 mL of 1% BSA/0.1 M DTPA), swept under stream of PBS into 30 test tubes by 0.5 mL fractions each. The radioactivity of each test tube was measured with gamma counter, and […] of sample was collected from the respective test tubes. After impression on the paper filter and staining with Coomassie blue, the protein peaks were observed. By plotting a curve of radioactivity of the respective fractions and calculating protein binding percent, the result was obtained as shown in Table 3.

Molecules are shown by their SMILES.

As for `O=C(O)CCCN1CCN(CC(=O)O)CCN(CC(=O)O)CC1` [Example 1, 4,7-bis(carboxymethyl)-1,4,7-triazonane-1-butyric acid], the “binding to human serum protein relative to NO2A compound” value is listed as “three times higher”.
